Data taken from BindingDB's records for doi:10.1016/S1074-5521(01)00079-5 (State University of New York, 2001).

Target: HIV-1 protease (Human immunodeficiency virus, UniProt O90785)
Assay: Enzyme Inhibition Assay

Sequence of HIV-1 protease (O90785 whole entry): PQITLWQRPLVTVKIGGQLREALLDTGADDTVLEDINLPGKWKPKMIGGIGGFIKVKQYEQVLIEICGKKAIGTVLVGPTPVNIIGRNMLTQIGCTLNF

Row | SMILES | Ki
1 | O=C(NCc1ccccc1)[C@H](Cc1ccccc1)CC(O)C[C@@H](Cc1ccccc1)C(=O)NCc1ccccc1 [Carbinol, 18a] | 3.2 µM
2 | O=C(NC1c2ccccc2CC1O)[C@H](Cc1ccccc1)CC(O)C[C@@H](Cc1ccccc1)C(=O)NC1c2ccccc2CC1O (stereo partly drawn) [Carbinol, 18b] | 0.0038 µM
3 | O=C(NCc1ccccc1)[C@H](Cc1ccccc1)C[Si](O)(O)C[C@@H](Cc1ccccc1)C(=O)NCc1ccccc1 [Silanediol, 17a] | 3.2 µM
